The record followed here is patent US20210261569A1, “FUSED HETEROCYCLIC DERIVATIVES HAVING SELECTIVE BACE1 INHIBITORY ACTIVITY” (Shionogi & Co., Ltd., priority 2018, published 2021).

Test [1] deals with T1, recombinant BACE1 protein (Homo sapiens, UniProt P56817).
T1 construct: recombinant BACE1 protein in a final concentration of 0.04 μg/mL
Put plainly: BACE1 biochemical FRET based assay. Conditions: for Selectivity: BACE2 IC50 relative to BACE1 IC50; for IC50: FRET, pH 5.0, 450 min at room temperature. An excerpt:
(§1) This assay is a Fluorescence Resonance Energy Transfer Assay (FRET) based assay. The substrate for this assay is an APP derived 13 amino acids peptide that contains the ‘Swedish’ Lys-Met/Asn-Leu mutation of the amyloid precursor protein (APP) beta-site secretase cleavage site. This substrate also contains two fluorophores: (7-methoxycoumarin-4-yl) acetic acid (Mca) is a fluorescent donor with excitation wavelength at 320 nm and emission at 405 nm and 2,4-dinitrophenol (Dnp) is a proprietary quencher acceptor. […] Upon cleavage by BACE1, the fluorophore Mca is separated from the quenching group Dnp, restoring the full fluorescence yield of the donor. The increase in fluorescence is linearly related to the rate of proteolysis.
Briefly in a 384-well format recombinant BACE1 protein in a final concentration of 0.04 μg/mL was incubated for 450 minutes at room temperature with 10 μm substrate in incubation buffer (final concentrations: 33.3 mM Citrate buffer pH 5.0, 0.033% PEG, 3% DMSO) in the absence or presence of compound. Next the amount of proteolysis was directly measured by fluorescence measurement at T=0′-120′ and T=450′ (excitation at 320 nm and emission at 405 nm). Results were expressed in RFU (Relative Fluorescence Units), as difference between T450 and Tx (Tx is chosen depending on the reaction speed between 0 and 120 minutes).
(§2) A best-fit curve was fitted by a minimum sum of squares method to the plot of % Controlmin versus compound concentration. From this an IC50 value (inhibitory concentration causing 50% inhibition of activity) can be obtained.

Test [2] has as its target T2, recombinant BACE2 protein (Homo sapiens, UniProt Q9Y5Z0).
T2 construct: recombinant BACE2 protein in a final concentration of 0.4 μg/mL
T2 sequence (Q9Y5Z0 63-518): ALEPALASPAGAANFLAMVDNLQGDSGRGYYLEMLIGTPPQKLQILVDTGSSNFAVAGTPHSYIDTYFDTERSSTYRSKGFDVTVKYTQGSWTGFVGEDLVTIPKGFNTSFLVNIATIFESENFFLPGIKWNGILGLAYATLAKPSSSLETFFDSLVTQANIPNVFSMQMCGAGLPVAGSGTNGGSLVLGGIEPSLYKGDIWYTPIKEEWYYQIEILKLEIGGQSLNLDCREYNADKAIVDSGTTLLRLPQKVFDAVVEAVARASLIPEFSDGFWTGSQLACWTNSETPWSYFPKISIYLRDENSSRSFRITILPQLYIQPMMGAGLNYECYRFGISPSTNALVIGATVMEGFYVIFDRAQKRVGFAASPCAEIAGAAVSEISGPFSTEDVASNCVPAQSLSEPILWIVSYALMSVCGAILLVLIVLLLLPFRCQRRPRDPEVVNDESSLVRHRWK
Put plainly: BACE2 biochemical FRET based assay. To be noted: pH 5.0, 450 min at room temperature.
Description: as §1, with “assay” for “assay is an APP derived 13 amino acids peptide that”, “beta-secretase” for “beta-site secretase”, “the beta-secretase,” for “BACE1,”
Briefly in a 384-well format recombinant BACE2 protein in a final concentration of 0.4 μg/mL was incubated for 450 minutes at room temperature with 10 μM substrate in incubation buffer (final concentrations: 33.3 mM Citrate buffer pH 5.0, 0.033% PEG, 2% DMSO) in the absence or presence of compound. Next the amount of proteolysis was directly measured by fluorescence measurement at T=0 and T=450 (excitation at 320 nm and emission at 405 nm). Results were expressed in RFU (Relative Fluorescence Units), as difference between T450 and T0.
as §2

T1 sequence (P56817 46-501): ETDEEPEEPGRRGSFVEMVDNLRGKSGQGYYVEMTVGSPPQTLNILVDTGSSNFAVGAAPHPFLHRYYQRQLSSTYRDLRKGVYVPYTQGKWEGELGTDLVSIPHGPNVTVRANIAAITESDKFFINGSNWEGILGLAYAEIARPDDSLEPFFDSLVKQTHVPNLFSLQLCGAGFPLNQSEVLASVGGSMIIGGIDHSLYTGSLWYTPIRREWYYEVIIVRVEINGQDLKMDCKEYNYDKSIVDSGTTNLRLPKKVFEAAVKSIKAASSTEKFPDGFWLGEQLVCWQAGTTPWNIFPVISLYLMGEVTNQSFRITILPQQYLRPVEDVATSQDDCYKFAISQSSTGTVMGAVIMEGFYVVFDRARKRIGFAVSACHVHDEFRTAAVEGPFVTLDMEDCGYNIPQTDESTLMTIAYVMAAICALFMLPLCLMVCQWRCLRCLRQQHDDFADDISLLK

The IC50 is the concentration that inhibits the measured activity by half. Take `Cn1cc([C@@H]2OC[C@H]3OC(N)=N[C@](C)(c4cc(NC(=O)c5cnc(OCF)cn5)ccc4F)[C@H]32)cn1` [Compound I-014]: in test [1], the Selectivity was 223 and the half-inhibitory concentration (IC50) is 44.7 nM. Besides, the IC50 in test [2] came out at 10000 nM.

`C[C@]1(c2cc(NC(=O)c3ccc(C#N)cn3)ccc2F)N=C(N)O[C@@H]2CO[C@@H](C(F)(F)F)[C@@H]21` [Compound I-016]: in test [1], the Selectivity is on record as 62.3 and the IC50 was found to be 5.7 nM. Moreover, the IC50 in test [2] worked out at 355 nM.

As for `C[C@]1(c2cc(NC(=O)c3ccc(C#N)cn3)ccc2F)N=C(N)O[C@@H]2CO[C@@H](CC(F)F)[C@@H]21` [Compound I-018], in test [1], the Selectivity stood at 38.1 and the half-inhibitory concentration (IC50) turned out to be 1.2 nM. Also, the concentration for half-maximal inhibition (IC50) in test [2] amounted to 45.7 nM.

As to `C[C@]1(c2cc(NC(=O)c3cnc(OCF)cn3)ccc2F)N=C(N)O[C@@H]2CO[C@@H](CC(F)F)[C@@H]21` [Compound I-019], in test [1], the Selectivity came to 60.2 and the IC50 was 4.07 nM. For the same compound, the half-inhibitory concentration (IC50) in test [2] was 245 nM.

With `C[C@]1(c2cc(NC(=O)c3ccc(C#N)cn3)ccc2F)N=C(N)O[C@@H]2CO[C@@H](CCF)[C@@H]21` [Compound I-020], in test [1], the Selectivity is listed as 21.4 and the IC50 stood at 2.19 nM. The IC50 in test [2] turned out to be 46.8 nM.

With `C[C@]1(c2cc(NC(=O)c3cnc(OCF)cn3)ccc2F)N=C(N)O[C@@H]2CO[C@@H](CCF)[C@@H]21` [Compound I-021], in test [1], the Selectivity was found to be 37.1 and the concentration for half-maximal inhibition (IC50) is 8.51 nM. The IC50 in test [2] is 316 nM.

On to `C[C@]1(c2cc(NC(=O)c3cnc(OCF)cn3)ccc2F)N=C(N)O[C@@H]2CO[C@@H](C(F)F)[C@@H]21` [Compound I-022], for which, in test [1], the Selectivity is reported as 27.5 and the IC50 came to 24 nM. In addition, the IC50 in test [2] amounted to 661 nM.

Turning to `CC[C@@H]1OC[C@H]2OC(N)=N[C@](C)(c3cc(NC(=O)c4cnc(OCF)cn4)ccc3F)[C@@H]12` [Compound I-023], in test [1], the Selectivity turned out to be 51.2 and the concentration for half-maximal inhibition (IC50) is 4.79 nM. Further, the half-maximal inhibitory concentration (IC50) in test [2] is 245 nM.

Turning to `CC(C)CCC[C@@H]1OC[C@H]2OC(N)=N[C@](C)(c3cc(NC(=O)c4cnc(OCF)cn4)ccc3F)[C@@H]12` [Compound I-025], the Selectivity in test [1] was determined as 9.3. Also, the concentration for half-maximal inhibition (IC50) was determined as 1.26 nM in test [1] and 11.7 nM in test [2].

For the compound `CC(C)C[C@@H]1OC[C@H]2OC(N)=N[C@](C)(c3cc(NC(=O)c4cnc(OCF)cn4)ccc3F)[C@@H]12` [Compound I-028], in test [1], the Selectivity turned out to be 87.1 and the IC50 came to 6.76 nM. Moreover, the IC50 in test [2] was 589 nM.

For `CC(C)C[C@@H]1OC[C@H]2OC(N)=N[C@](C)(c3cc(NC(=O)c4cnc(OC[C@@H](C)F)cn4)ccc3F)[C@@H]12` [Compound I-029], in test [1], the Selectivity was found to be 191 and the IC50 turned out to be 22.9 nM. Also, the half-inhibitory concentration (IC50) in test [2] is 4370 nM.

Consider `C[C@@H](F)COc1cnc(C(=O)Nc2ccc(F)c([C@@]3(C)N=C(N)O[C@@H]4CO[C@@H](C(F)(F)F)[C@@H]43)c2)cn1` [Compound I-030], for which the Selectivity in test [1] turned out to be 151. Also, the IC50 was found to be 66.1 nM in test [1] and 10000 nM in test [2].

For `Cc1noc(C)c1[C@@H]1OC[C@H]2OC(N)=N[C@](C)(c3cc(NC(=O)c4cnc(OCF)cn4)ccc3F)[C@H]21` [Compound I-031], in test [1], the Selectivity was determined as 282. The results for the IC50 in test [1] and in test [2] were 12 nM and 3390 nM, respectively.

With `C[C@H]1OC[C@H]2[C@@H]1OC(N)=N[C@]2(CF)c1cc(NC(=O)c2cnc(-n3cncn3)cn2)ccc1F` [Compound I-051], the Selectivity in test [1] is reported as 63.1. The half-maximal inhibitory concentration (IC50) was 5.01 nM in test [1] and 316 nM in test [2].

Turning to `NC1=N[C@](CF)(c2cc(NC(=O)c3cnc(OCF)cn3)ccc2F)[C@@H]2COCC[C@H]2O1` [II-017], in test [1], the Selectivity came to 23.4 and the IC50 was found to be 7.6 nM. The IC50 in test [2] was 178 nM.
